“Also recorded” adds a separate entry of the source.
Columns and labels:
[1] = IPA solubility and stability in Cleave 1 solution / Cleave Reagent formulations (concentration curve); assay type: physicochemical; conditions: for Color / Precipitate / Solubility / pH: Cleave 1 solution
Experimental: IPA was initially tested for solubility and stability in Cleave Reagent formulations. […] IPA was then tested by sequencing in a head-to-head comparison with the reference cleaving reagent, gallic acid, to provide a performance benchmark. IPA was implemented into a sequencing workflow as a standalone powder component to the cleave reagent. See, Example IV.
This example tests alternative formulations and chemistry for a cleave mix including TCEP as a standard reducing agent and IPA as a radical oxygen scavenger. The goal is to test both solubility and the ease of implementation into a kit configuration.
Formation of solid components directly within a Cleave 1 solution using an IPA concentration curve (10 mM, 25 mM and 50 mM) was assessed by measuring solubility, color, precipitate observation and pH level.

[2] = Carnitine and acetylcarnitine solubility and stability in Cleave reagent; assay type: physicochemical; conditions: for solubility into Cleave reagent: 10 mM, 25 mM and 50 mM; for stability against discoloration and precipitation: cleave reagent formulations, storage at room temperature; for solubility in cleave reagent formulations: over a range of concentrations; for stability of solutions (discoloration or precipitate): room temperature (RT), a few hours of storage
Experimental: L-carnitine and O-acetyl-carnitine were tested for solubility and stability in cleave reagent formulations similarly to IPA. […] See, Example V.
This example tests carnitine-based compounds for solubility into Cleave reagent. Various concentrations (10 mM, 25 mM and 50 mM) of carnitine and acetylcarnitine were tested for solubility and stability.

In the case of `O=C(O)CCc1c[nH]c2ccccc12` [IPA, indole-3-propionic acid], the Color ([1]; 10 mM/2-8 C.°, 0 hours) is reported as “No color; also recorded: Transparent”, the Precipitate ([1]; 10 mM/2-8 C.°, 0 hours) is reported as “None” and the Solubility ([1]; 10 mM/2-8 C.°, 0 hours) is reported as “Excellent”. For the same molecule, the pH ([1]; 10 mM/2-8 C.°, 0 hours) was 12.81, the Color ([1]; 10 mM/2-8 C.°, 8 hours) was “Transparent; also recorded: No color” and the Precipitate ([1]; 10 mM/2-8 C.°, 8 hours) was “None”. For the same molecule, the Solubility ([1]; 10 mM/2-8 C.°, 8 hours) was “Excellent”, the pH ([1]; 10 mM/2-8 C.°, 8 hours) was 12.80 and the Color ([1]; 10 mM/2-8 C.°, 48 hours) was “Transparent; also recorded: No color”. For the same molecule, the Precipitate ([1]; 10 mM/2-8 C.°, 48 hours) was “None”, the Solubility ([1]; 10 mM/2-8 C.°, 48 hours) was “Excellent” and the pH ([1]; 10 mM/2-8 C.°, 48 hours) was 12.83. For the same molecule, the Color ([1]; 10 mM/RT, 0 hours) was “Transparent; also recorded: No color”, the Precipitate ([1]; 10 mM/RT, 0 hours) was “None” and the Solubility ([1]; 10 mM/RT, 0 hours) was “Excellent”. For the same molecule, the pH ([1]; 10 mM/RT, 0 hours) was 12.88, the Color ([1]; 10 mM/RT, 8 hours) was “Transparent; also recorded: No color” and the Precipitate ([1]; 10 mM/RT, 8 hours) was “None”. The Solubility ([1]; 10 mM/RT, 8 hours) was “Excellent”, the pH ([1]; 10 mM/RT, 8 hours) was 12.83 and the Color ([1]; 10 mM/RT, 48 hours) was “Transparent; also recorded: No color”. For the same molecule, the Precipitate ([1]; 10 mM/RT, 48 hours) was “None”, the Solubility ([1]; 10 mM/RT, 48 hours) was “Excellent” and the pH ([1]; 10 mM/RT, 48 hours) was 12.79. The Precipitate ([1]; 25 mM RT, 0 hours) was “None”, the Solubility ([1]; 25 mM RT, 0 hours) was “Excellent” and the pH ([1]; 25 mM RT, 0 hours) was 12.78. For the same molecule, the Precipitate ([1]; 25 mM/2-8 C.°, 0 hours) was “None”, the Solubility ([1]; 25 mM/2-8 C.°, 0 hours) was “Excellent” and the pH ([1]; 25 mM/2-8 C.°, 0 hours) was 12.75. For the same molecule, the Precipitate ([1]; 25 mM/2-8 C.°, 8 hours) was “None”, the Solubility ([1]; 25 mM/2-8 C.°, 8 hours) was “Excellent” and the pH ([1]; 25 mM/2-8 C.°, 8 hours) was 12.71. The Precipitate ([1]; 25 mM/2-8 C.°, 48 hours) was “None”, the Solubility ([1]; 25 mM/2-8 C.°, 48 hours) was “Excellent” and the pH ([1]; 25 mM/2-8 C.°, 48 hours) was 12.76. The Precipitate ([1]; 25 mM/RT, 8 hours) was “None”, the Solubility ([1]; 25 mM/RT, 8 hours) was “Excellent” and the pH ([1]; 25 mM/RT, 8 hours) was 12.67. For the same molecule, the Precipitate ([1]; 25 mM/RT, 48 hours) was “None”, the Solubility ([1]; 25 mM/RT, 48 hours) was “Excellent” and the pH ([1]; 25 mM/RT, 48 hours) was 12.71. For the same molecule, the Color ([1]; 50 mM/2-8 C.°, 0 hours) was “Transparent; also recorded: Pale yellow”, the Precipitate ([1]; 50 mM/2-8 C.°, 0 hours) was “None” and the Solubility ([1]; 50 mM/2-8 C.°, 0 hours) was “Excellent”. The pH ([1]; 50 mM/2-8 C.°, 0 hours) was 12.67, the Precipitate ([1]; 50 mM/2-8 C.°, 8 hours) was “None” and the Solubility ([1]; 50 mM/2-8 C.°, 8 hours) was “Excellent”. For the same molecule, the pH ([1]; 50 mM/2-8 C.°, 8 hours) was 12.61, the Precipitate ([1]; 50 mM/2-8 C.°, 48 hours) was “None” and the Solubility ([1]; 50 mM/2-8 C.°, 48 hours) was “Excellent”. For the same molecule, the pH ([1]; 50 mM/2-8 C.°, 48 hours) was 12.64, the Precipitate ([1]; 50 mM/RT, 0 hours) was “None” and the Solubility ([1]; 50 mM/RT, 0 hours) was “Excellent”. The pH ([1]; 50 mM/RT, 0 hours) was 12.61, the Precipitate ([1]; 50 mM/RT, 8 hours) was “None” and the Solubility ([1]; 50 mM/RT, 8 hours) was “Excellent”. The pH ([1]; 50 mM/RT, 8 hours) was 12.69, the Precipitate ([1]; 50 mM/RT, 48 hours) was “None” and the Solubility ([1]; 50 mM/RT, 48 hours) was “Excellent”. For the same molecule, the pH ([1]; 50 mM/RT, 48 hours) was 12.72, the “stability against discoloration and precipitation” value ([1]; Cleave Reagent formulations, prolonged storage at room temperature) was “stable against discoloration and precipitation” and the “stability (lack of discoloration and/or formation of precipitate)” value ([1]; aqueous solution at pH ~12) was “relative stability”. The “solubility in cleave reagent formulations” value ([1]; over a range of concentrations) was “highly soluble” and the “solubility in aqueous solution” value ([1]; pH ~12) was “highly soluble”.
For `C[N+](C)(C)C[C@H](O)CC(=O)[O-]` [L-carnitine], the “solubility into Cleave reagent” value [2] was “very soluble”, the “stability against discoloration and precipitation” value [2] was “stable against discoloration and precipitation” and the “solubility in cleave reagent formulations” value [2] was “highly soluble”. The “stability of solutions (discoloration or precipitate)” value [2] was “no discoloration or precipitate were observed”.
With `CC(=O)O[C@H](CC(=O)[O-])C[N+](C)(C)C` [O-acetyl-carnitine, O-acetyl-L-carnitine] the “solubility into Cleave reagent” value [2] was “very soluble”, the “stability against discoloration and precipitation” value [2] was “stable against discoloration and precipitation” and the “solubility in cleave reagent formulations” value [2] was “highly soluble”. The “stability of solutions (discoloration or precipitate)” value [2] was “no discoloration or precipitate were observed”.
